# Assay results published in publication PMC8225008, “Development of Non-Ethoxypropanoic Acid Type Cryptochrome Inhibitors with Circadian Molecular Clock-Enhancing Activity by Bioisosteric Replacement” (Pharmaceuticals, 2021).
# Columns and labels:
# CYP2C19 = target: T1, CYP2C19 (Homo sapiens, UniProt P33261); experiment: Cytochrome P450 inhibition assay (cocktail method, human liver microsomes), omeprazole hydroxylation; format: in vitro ADME
# T1 construct: pooled human liver microsomes (HLMs, XTreme 200, XenoTech, Lenexa, KS, USA); tissue XenoTech XTreme 200; host or cells: pooled human liver microsomes
# T1 sequence (P33261 whole entry): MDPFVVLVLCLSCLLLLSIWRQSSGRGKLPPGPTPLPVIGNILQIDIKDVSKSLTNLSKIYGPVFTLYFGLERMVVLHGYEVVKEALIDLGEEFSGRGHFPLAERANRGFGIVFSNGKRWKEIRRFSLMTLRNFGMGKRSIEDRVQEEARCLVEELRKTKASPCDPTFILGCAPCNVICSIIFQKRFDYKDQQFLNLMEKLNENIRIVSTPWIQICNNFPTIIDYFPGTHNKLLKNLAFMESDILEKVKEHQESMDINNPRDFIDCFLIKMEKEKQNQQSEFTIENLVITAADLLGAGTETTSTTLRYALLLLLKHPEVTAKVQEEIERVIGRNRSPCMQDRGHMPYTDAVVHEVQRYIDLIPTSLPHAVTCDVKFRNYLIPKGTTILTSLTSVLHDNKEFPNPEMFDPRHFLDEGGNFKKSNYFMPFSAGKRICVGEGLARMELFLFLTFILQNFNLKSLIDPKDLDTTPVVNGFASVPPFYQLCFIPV
# Experimental: (§1) The inhibitory effects of KS15 and compound 5d on the metabolism of five cytochrome P450 (P450) probe substrates were evaluated using previous methods with slight modifications. The following P450 probe substrates were used: phenacetin (100 μM) for CYP1A2, tolbutamide (100 μM) for CYP2C9, omeprazole (20 μM) for CYP2C19, dextromethorphan (5 μM) for CYP2D6, and midazolam (5 μM) for CYP3A. Incubation mixtures containing pooled human liver microsomes (HLMs, XTreme 200, XenoTech, Lenexa, KS, USA), P450 probe substrates, and KS15 or compound 5d (final concentrations: 0, 0.5, 2, 5, 20, and 50 μM) were preincubated for 5 min at 37 °C. […] After centrifugation at 18,000× g (5 min, 4 °C), supernatant aliquots were analyzed by liquid chromatography-tandem mass spectrometry (LC-MS/MS). […]
# (§2) All metabolites and IS were separated on a Kinetex C18 column (100 mm × 2.1 mm, 2.6 μm ID., Phenomenex, Torrance, CA, USA) and analyzed using an LC-MS/MS system (LCMS 8060, Shimadzu, Tokyo, Japan) equipped with an electrospray ionization (ESI) interface. […]
# (§3) The EC50 values for luciferase reporter assay were calculated based on a logistic four-parametric equation using the mean values of intrinsic activation (SigmaPlot 10.0; Systat Software Inc., San Jose, CA, USA). […] Pharmacokinetic parameters were calculated using non-compartmental analysis (WinNonlin v.8.3; Pharsight, Mountain View, CA, USA). […]
# CYP2D6 = target: T2, CYP2D6 (Homo sapiens, UniProt P10635); experiment: Cytochrome P450 inhibition assay (cocktail method, human liver microsomes), dextromethorphan O-demethylation; format: in vitro ADME
# T2 construct: pooled human liver microsomes (HLMs, XTreme 200, XenoTech, Lenexa, KS, USA); tissue XenoTech XTreme 200; host or cells: pooled human liver microsomes
# T2 sequence (P10635 whole entry): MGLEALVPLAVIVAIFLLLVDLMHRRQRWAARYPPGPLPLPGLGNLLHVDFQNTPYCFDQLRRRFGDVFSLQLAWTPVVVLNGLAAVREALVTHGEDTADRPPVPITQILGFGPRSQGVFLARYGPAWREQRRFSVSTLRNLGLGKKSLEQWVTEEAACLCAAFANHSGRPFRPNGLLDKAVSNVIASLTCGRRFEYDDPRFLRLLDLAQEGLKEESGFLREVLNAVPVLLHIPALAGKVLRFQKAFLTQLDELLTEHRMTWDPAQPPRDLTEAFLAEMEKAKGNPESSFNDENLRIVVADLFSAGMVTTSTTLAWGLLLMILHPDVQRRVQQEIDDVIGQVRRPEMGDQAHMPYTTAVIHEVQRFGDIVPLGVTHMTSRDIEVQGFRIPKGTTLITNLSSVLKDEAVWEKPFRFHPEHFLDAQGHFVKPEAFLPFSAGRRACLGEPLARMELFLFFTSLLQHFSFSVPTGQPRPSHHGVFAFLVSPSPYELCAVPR
# Experimental: as §1, §2, §3
# CYP2C9 = target: T3, CYP2C9 (Homo sapiens, UniProt P11712); experiment: Cytochrome P450 inhibition assay (cocktail method, human liver microsomes), tolbutamide 4-methylhydroxylation; format: in vitro ADME
# T3 construct: pooled human liver microsomes (HLMs, XTreme 200, XenoTech, Lenexa, KS, USA); tissue XenoTech XTreme 200; host or cells: pooled human liver microsomes
# T3 sequence (P11712 whole entry): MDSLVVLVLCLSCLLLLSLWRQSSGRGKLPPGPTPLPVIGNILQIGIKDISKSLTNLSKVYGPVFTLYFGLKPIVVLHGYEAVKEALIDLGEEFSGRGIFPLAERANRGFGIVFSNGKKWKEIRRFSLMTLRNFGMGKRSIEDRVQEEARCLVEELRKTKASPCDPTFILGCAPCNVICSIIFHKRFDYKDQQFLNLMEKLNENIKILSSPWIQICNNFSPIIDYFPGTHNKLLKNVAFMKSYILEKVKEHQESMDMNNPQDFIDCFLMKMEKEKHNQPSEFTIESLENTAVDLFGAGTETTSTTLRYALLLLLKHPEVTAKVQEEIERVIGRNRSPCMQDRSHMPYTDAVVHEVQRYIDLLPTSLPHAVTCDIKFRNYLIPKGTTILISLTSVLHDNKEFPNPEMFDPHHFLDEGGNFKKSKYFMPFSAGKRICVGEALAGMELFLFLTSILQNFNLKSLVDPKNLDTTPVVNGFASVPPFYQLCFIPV
# Experimental: as §1, §2, §3
# hCRY2 = target: T4, hCRY2 (Homo sapiens, UniProt Q49AN0); experiment: Surface plasmon resonance, CRY2; format: binding; conditions: SPR, His-tagged CRY2, Langmuir 1:1 model
# T4 construct: GST; purchased MyBioSource; host or cells: baculovirus expression system
# T4 sequence (Q49AN0 1-593): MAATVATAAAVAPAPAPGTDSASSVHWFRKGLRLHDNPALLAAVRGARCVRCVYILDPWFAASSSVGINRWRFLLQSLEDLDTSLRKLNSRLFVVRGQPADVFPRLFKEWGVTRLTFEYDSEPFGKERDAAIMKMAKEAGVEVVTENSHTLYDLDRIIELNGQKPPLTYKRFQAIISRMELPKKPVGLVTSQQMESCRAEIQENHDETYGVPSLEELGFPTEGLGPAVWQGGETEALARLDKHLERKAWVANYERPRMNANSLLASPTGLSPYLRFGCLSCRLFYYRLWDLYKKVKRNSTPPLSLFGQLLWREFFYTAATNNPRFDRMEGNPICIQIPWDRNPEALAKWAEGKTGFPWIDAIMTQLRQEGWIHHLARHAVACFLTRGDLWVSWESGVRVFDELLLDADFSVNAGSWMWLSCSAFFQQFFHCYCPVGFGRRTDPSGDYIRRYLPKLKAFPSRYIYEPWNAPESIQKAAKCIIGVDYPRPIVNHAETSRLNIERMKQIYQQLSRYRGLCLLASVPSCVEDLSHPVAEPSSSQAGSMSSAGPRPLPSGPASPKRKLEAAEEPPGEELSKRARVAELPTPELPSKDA
# Experimental: We used a ProteOn XPR36 system (Bio-Rad, Hercules, CA, USA) equipped with a HTE sensor chip (high capacity tris-NTA for histidine-tagged […] capture, Bio-Rad) for surface plasmon resonance analyses. Purified target proteins (6xHis- and GST-tagged hCRY1 and hCRY2) were prepared by a baculovirus expression system (MyBioSource, San Diego, CA, USA). Phosphate buffered saline (PBS) plus 0.005% Tween 20 was used as the running buffer. The 6xHis-hCRY1 and 6xHis-hCRY2 proteins were immobilized onto separate channels of a HTE chip by injecting 210 μL protein sample (2.0 μg/mL) into flow cells (30 μL/min) to allow saturation. Serially diluted compound 2d samples (50–800 μM) were prepared in 4% DMSO in TBS-T buffer. […] Recorded resonance units (RU) were normalized and plotted against chemical concentration. […]
# The EC50 values for luciferase reporter assay were calculated based on a logistic four-parametric equation using the mean values of intrinsic activation (SigmaPlot 10.0; Systat Software Inc., San Jose, CA, USA). The IC50 and t1/2 values for the cytochrome P450 inhibition assay and metabolic stability test were calculated by WinNonlin software (Pharsight, Mountain View, CA, USA). Pharmacokinetic parameters were calculated using non-compartmental analysis (WinNonlin v.8.3; Pharsight, Mountain View, CA, USA). […]
IC50 (CYP2C19) [µM],IC50 (CYP2D6) [µM],IC50 (CYP2C9) [µM],Kd (hCRY2) [µM],SMILES
> 50,> 50,> 50,,"COC(=O)COc1cccc(C(C)=NOCc2ccc([N+](=O)[O-])cc2)c1 [Compound 5d, Methyl 2-(3-(1-(((4-nitrobenzyl)oxy)imino)ethyl)phenoxy)acetate]"
,,,380,"CC(=NOCc1ccc([N+](=O)[O-])cc1)c1cccc(OCC(=O)O)c1 [Compound 2d, 2-(3-(1-(((4-nitrobenzyl)oxy)imino)ethyl)phenoxy)acetic acid]"
